Data published in ChEMBL document CHEMBL1201862, “PubChem BioAssay data set” (2004).
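These data come from cells grown in 96-well plates and exposed to compound for 48 hours at five concentrations. GI50 marks 50% less growth.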 Calls of active or inactive are those of the source. No stated cut-off is given here; in the data, active = GI50 up to about 1.1 µM and inactive = higher.

Assays:
Experiment in all cases: NCI tumour cell line growth inhibition, 48 h
LOX IMVI = test system: LOX IMVI
UACC-257 = test system: UACC-257
U-251 = test system: U-251
SNB-19 = test system: SNB-19
SF-539 = test system: SF-539
COLO 205 = test system: COLO 205
MOLT-4 = test system: MOLT-4
NCI-H460 = test system: NCI-H460
SW-620 = test system: SW-620
A549 = test system: A549
HCT-116 = test system: HCT-116
HCT-15 = test system: HCT-15
CAKI-1 = test system: CAKI-1
786-0 = test system: 786-0
UACC-62 = test system: UACC-62
Malme-3M = test system: Malme-3M
SK-OV-3 = test system: SK-OV-3

O=[N+]([O-])C(=C1c2ccccc2-c2ccccc21)[N+](=O)[O-]
GI50 (LOX IMVI): 83.4 µM (inactive)
GI50 (UACC-257): 52.8 µM (inactive)
GI50 (U-251): > 100 µM (inactive)
GI50 (SNB-19): 97.5 µM (inactive)
GI50 (SF-539): > 100 µM (inactive)
GI50 (COLO 205): > 100 µM (inactive)
GI50 (MOLT-4): 32.6 µM (inactive)
GI50 (NCI-H460): 48 µM (inactive)
GI50 (SW-620): 64.7 µM (inactive)
GI50 (A549): 38.5 µM (inactive)
GI50 (HCT-116): 38 µM (inactive)
GI50 (HCT-15): > 10 µM
GI50 (CAKI-1): > 100 µM (inactive)
GI50 (786-0): > 100 µM (inactive)
GI50 (UACC-62): 49.3 µM (inactive)

Cc1cccc(C(C)(C)C)c1NC(=O)CCc1n[nH]c(=S)o1
GI50 (UACC-257): > 100 µM (inactive)
GI50 (U-251): > 100 µM (inactive)
GI50 (SNB-19): > 100 µM (inactive)
GI50 (SF-539): > 100 µM (inactive)
GI50 (Malme-3M): > 100 µM (inactive)
GI50 (COLO 205): 16.6 µM (inactive)
GI50 (MOLT-4): > 100 µM (inactive)
GI50 (NCI-H460): > 100 µM (inactive)
GI50 (SW-620): 15.9 µM (inactive)
GI50 (A549): > 100 µM (inactive)
GI50 (HCT-116): 17.6 µM (inactive)
GI50 (HCT-15): 21.7 µM
GI50 (CAKI-1): > 100 µM (inactive)
GI50 (SK-OV-3): > 100 µM (inactive)
GI50 (786-0): > 100 µM (inactive)
GI50 (UACC-62): > 100 µM (inactive)

CC(=O)O[C@H]1CC[C@@]2(C)C(=CC[C@H]3C(CC#N)[C@@](C)(C#N)CCC32)C1 (stereo partly drawn)
GI50 (LOX IMVI): > 100 µM (inactive)
GI50 (UACC-257): > 100 µM (inactive)
GI50 (U-251): 74 µM (inactive)
GI50 (SNB-19): > 100 µM (inactive)
GI50 (SF-539): > 100 µM (inactive)
GI50 (Malme-3M): > 100 µM (inactive)
GI50 (COLO 205): > 100 µM (inactive)
GI50 (MOLT-4): > 100 µM (inactive)
GI50 (NCI-H460): > 100 µM (inactive)
GI50 (SW-620): > 100 µM (inactive)
GI50 (A549): > 100 µM (inactive)
GI50 (HCT-116): > 100 µM (inactive)
GI50 (HCT-15): > 100 µM
GI50 (SK-OV-3): > 100 µM (inactive)
GI50 (786-0): > 100 µM (inactive)
GI50 (UACC-62): > 100 µM (inactive)

COc1ccc(NC(=O)CC2S/C(=N\c3ccccc3C)NC2=O)c([N+](=O)[O-])c1 (stereo not drawn)
GI50 (LOX IMVI): > 100 µM (inactive)
GI50 (UACC-257): > 100 µM (inactive)
GI50 (U-251): > 100 µM (inactive)
GI50 (SNB-19): > 100 µM (inactive)
GI50 (SF-539): > 100 µM (inactive)
GI50 (Malme-3M): > 100 µM (inactive)
GI50 (COLO 205): > 100 µM (inactive)
GI50 (MOLT-4): > 100 µM (inactive)
GI50 (NCI-H460): > 100 µM (inactive)
GI50 (SW-620): > 100 µM (inactive)
GI50 (A549): > 100 µM (inactive)
GI50 (HCT-116): > 100 µM (inactive)
GI50 (HCT-15): > 100 µM
GI50 (SK-OV-3): > 100 µM (inactive)
GI50 (786-0): > 100 µM (inactive)
GI50 (UACC-62): > 100 µM (inactive)

O=C1NC2OC(CO)C(O)C(O1)C2O (stereo not drawn)
GI50 (LOX IMVI): > 100 µM (inactive)
GI50 (UACC-257): > 100 µM (inactive)
GI50 (U-251): > 100 µM (inactive)
GI50 (SNB-19): > 100 µM (inactive)
GI50 (SF-539): > 100 µM (inactive)
GI50 (Malme-3M): > 100 µM (inactive)
GI50 (COLO 205): > 100 µM (inactive)
GI50 (MOLT-4): > 100 µM (inactive)
GI50 (NCI-H460): > 100 µM (inactive)
GI50 (SW-620): > 100 µM (inactive)
GI50 (HCT-15): > 100 µM
GI50 (CAKI-1): > 100 µM (inactive)
GI50 (SK-OV-3): > 100 µM (inactive)
GI50 (786-0): > 100 µM (inactive)
GI50 (UACC-62): > 100 µM (inactive)

N#CCCN(c1ccc(/C=C2\N=C(c3ccc(Cl)cc3)OC2=O)cc1)S(=O)(=O)c1ccccc1
GI50 (LOX IMVI): > 100 µM (inactive)
GI50 (UACC-257): > 100 µM (inactive)
GI50 (U-251): > 100 µM (inactive)
GI50 (SNB-19): > 100 µM (inactive)
GI50 (SF-539): > 100 µM (inactive)
GI50 (COLO 205): > 100 µM (inactive)
GI50 (MOLT-4): > 100 µM (inactive)
GI50 (NCI-H460): > 100 µM (inactive)
GI50 (SW-620): > 100 µM (inactive)
GI50 (A549): > 100 µM (inactive)
GI50 (HCT-116): > 100 µM (inactive)
GI50 (HCT-15): > 100 µM
GI50 (CAKI-1): > 100 µM (inactive)
GI50 (SK-OV-3): > 100 µM (inactive)
GI50 (786-0): > 100 µM (inactive)
GI50 (UACC-62): > 100 µM (inactive)

COc1cc(-c2n[nH]cc2CCCC(=O)Nc2ccccc2[N+](=O)[O-])ccc1O
GI50 (LOX IMVI): > 100 µM (inactive)
GI50 (UACC-257): > 100 µM (inactive)
GI50 (U-251): 75.2 µM (inactive)
GI50 (SF-539): 74.5 µM (inactive)
GI50 (Malme-3M): 19.2 µM (inactive)
GI50 (COLO 205): > 100 µM (inactive)
GI50 (MOLT-4): 42.2 µM (inactive)
GI50 (SW-620): 59.3 µM (inactive)
GI50 (A549): 73.8 µM (inactive)
GI50 (HCT-116): 45.3 µM (inactive)
GI50 (HCT-15): 64.6 µM
GI50 (CAKI-1): > 100 µM (inactive)
GI50 (SK-OV-3): > 100 µM (inactive)
GI50 (786-0): > 100 µM (inactive)
GI50 (UACC-62): 67.9 µM (inactive)

CC1C=C(OC(=O)c2ccccc2)C(=O)C(n2cc(F)c(=O)[nH]c2=O)O1 (stereo not drawn)
GI50 (UACC-257): > 100 µM (inactive)
GI50 (U-251): 97.3 µM (inactive)
GI50 (SNB-19): > 100 µM (inactive)
GI50 (SF-539): 13.9 µM (inactive)
GI50 (Malme-3M): 51.2 µM (inactive)
GI50 (COLO 205): 50.9 µM (inactive)
GI50 (MOLT-4): 51.5 µM (inactive)
GI50 (NCI-H460): 19.5 µM (inactive)
GI50 (SW-620): > 100 µM (inactive)
GI50 (A549): 38.2 µM (inactive)
GI50 (HCT-116): 38.5 µM (inactive)
GI50 (HCT-15): 50.6 µM
GI50 (CAKI-1): 62.1 µM (inactive)
GI50 (SK-OV-3): > 100 µM (inactive)
GI50 (786-0): 69.8 µM (inactive)
GI50 (UACC-62): 79.4 µM (inactive)

CC(C)CC(CNC(Cc1ccc(Cl)cc1)C(N)=O)NC(=O)C(Cc1c[nH]cn1)NC(=O)CNC(=O)C(NC(=O)C(C)NC(=O)C(Cc1c[nH]c2ccccc12)NC(=O)C(CCC(=O)O)NC(=O)C(N)Cc1ccccc1)C(C)C (stereo not drawn)
GI50 (UACC-257): > 133 µM (inactive)
GI50 (U-251): > 133 µM (inactive)
GI50 (SNB-19): > 133 µM (inactive)
GI50 (SF-539): > 133 µM (inactive)
GI50 (COLO 205): > 133 µM (inactive)
GI50 (MOLT-4): > 133 µM (inactive)
GI50 (NCI-H460): > 133 µM (inactive)
GI50 (SW-620): > 133 µM (inactive)
GI50 (A549): > 133 µM (inactive)
GI50 (HCT-116): > 133 µM (inactive)
GI50 (HCT-15): > 133 µM
GI50 (CAKI-1): > 133 µM (inactive)
GI50 (SK-OV-3): > 133 µM (inactive)
GI50 (786-0): > 133 µM (inactive)
GI50 (UACC-62): > 133 µM (inactive)

O=c1c2ccccc2[nH]c(=S)n1-c1ccc(Br)cc1
GI50 (LOX IMVI): 48.5 µM (inactive)
GI50 (UACC-257): > 100 µM (inactive)
GI50 (U-251): > 100 µM (inactive)
GI50 (SNB-19): > 100 µM (inactive)
GI50 (SF-539): > 100 µM (inactive)
GI50 (Malme-3M): > 100 µM (inactive)
GI50 (COLO 205): > 100 µM (inactive)
GI50 (MOLT-4): 76 µM (inactive)
GI50 (NCI-H460): 42.9 µM (inactive)
GI50 (SW-620): 87.1 µM (inactive)
GI50 (A549): 33.3 µM (inactive)
GI50 (HCT-116): 68.4 µM (inactive)
GI50 (HCT-15): 71.9 µM
GI50 (786-0): 80.7 µM (inactive)

CN(CCCN1C(=O)c2cccc3cc([N+](=O)[O-])cc(c23)C1=O)CCN(C)CCCN1C(=O)c2cccc3cc([N+](=O)[O-])cc(c23)C1=O
GI50 (UACC-257): > 39.3 µM (inactive)
GI50 (U-251): 15.2 µM (inactive)
GI50 (SNB-19): > 39.3 µM (inactive)
GI50 (SF-539): 29.7 µM (inactive)
GI50 (Malme-3M): 25.9 µM (inactive)
GI50 (COLO 205): 23.4 µM (inactive)
GI50 (MOLT-4): 1.51 µM (inactive)
GI50 (NCI-H460): 6.73 µM (inactive)
GI50 (SW-620): 2.48 µM (inactive)
GI50 (A549): 19.2 µM (inactive)
GI50 (HCT-116): 11.7 µM (inactive)
GI50 (HCT-15): 32.6 µM
GI50 (CAKI-1): 31.9 µM (inactive)
GI50 (SK-OV-3): > 39.3 µM (inactive)
GI50 (786-0): 13.6 µM (inactive)
GI50 (UACC-62): 17 µM (inactive)

COc1ccc(/C=C/c2cc(OC)c(OC(C)=O)c(OC)c2)cc1
GI50 (UACC-257): 20.7 µM (inactive)
GI50 (U-251): 17.5 µM (inactive)
GI50 (SNB-19): 25.1 µM (inactive)
GI50 (SF-539): > 10 µM (inactive)
GI50 (Malme-3M): 26.3 µM (inactive)
GI50 (COLO 205): 68.1 µM (inactive)
GI50 (MOLT-4): 20.3 µM (inactive)
GI50 (NCI-H460): 22.1 µM (inactive)
GI50 (A549): 24.8 µM (inactive)
GI50 (HCT-116): 30.8 µM (inactive)
GI50 (HCT-15): 26.2 µM
GI50 (SK-OV-3): 37.3 µM (inactive)
GI50 (786-0): 33.7 µM (inactive)
GI50 (UACC-62): 20.1 µM (inactive)

c1ccc2c(c1)Cc1c(Cc3csc4ccccc34)ccc3cccc-2c13
GI50 (UACC-257): > 100 µM (inactive)
GI50 (U-251): > 100 µM (inactive)
GI50 (SNB-19): > 100 µM (inactive)
GI50 (SF-539): > 100 µM (inactive)
GI50 (Malme-3M): > 100 µM (inactive)
GI50 (COLO 205): > 100 µM (inactive)
GI50 (MOLT-4): > 100 µM (inactive)
GI50 (NCI-H460): > 100 µM (inactive)
GI50 (SW-620): > 100 µM (inactive)
GI50 (A549): > 100 µM (inactive)
GI50 (HCT-116): > 100 µM (inactive)
GI50 (HCT-15): > 100 µM
GI50 (786-0): > 100 µM (inactive)
GI50 (UACC-62): > 100 µM (inactive)
